According to patent EP2257297B1, “COMPOUNDS FOR USE IN THE TREATMENT OF ACNE, SEBORRHOEA AND SEBHORROEIC DERMATITIS, OR FOR REDUCING SEBUM SECRETION” (priority 2008, dated 2009):

The molecules below were run against T1, human MC5R (Homo sapiens, UniProt P33032) (assay: Human MC5R radioligand binding assay ([125I] NDP-MSH displacement, hMC5R membranes)). Settings: hMC5R assay as in Example 102; compounds tested as trifluoroacetate or hydrochloride salts, or as free base.
T1 construct: purchased Perkin Elmer RBXMC5M400UA
T1 sequence (P33032 whole entry): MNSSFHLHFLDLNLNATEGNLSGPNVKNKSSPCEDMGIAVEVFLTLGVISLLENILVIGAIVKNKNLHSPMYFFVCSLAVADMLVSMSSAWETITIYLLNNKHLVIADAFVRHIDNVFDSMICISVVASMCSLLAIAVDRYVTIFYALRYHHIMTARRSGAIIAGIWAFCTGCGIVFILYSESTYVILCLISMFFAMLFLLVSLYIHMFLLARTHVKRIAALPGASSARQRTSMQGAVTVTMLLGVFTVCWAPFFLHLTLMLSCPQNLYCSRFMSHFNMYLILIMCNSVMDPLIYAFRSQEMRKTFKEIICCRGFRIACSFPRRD
Method: After incubation for 10 mins the phosphate buffer containing the iodine was added to NDP-MSH (10 ul at 1 mg/mL) in a separate eppendorf tube. This was incubated for a further 10 mins.
Resuspended membranes were kept on ice until they were added to the wells of the plate.
Assays were performed in 96 well polypropylene plates. […] This was incubated for 1 hr at 37 °C. Non-specific binding was determined with […] NDP-MSH. Plates were filtered using a Tomtec cell harvester with GF/A filters (Wallac) (presoaked in 0.6% polyethylenimine) and washed three times with 1.0 mL ice-cold wash buffer (the above incubation buffer without 1,10-phenanthroline and Complete™ protease inhibitor tablet). The filters were dried in a 37 °C oven, placed in a sample bag and 5 mL Betaplatescint (Wallac) was added. Prepared filters were counted in cassettes in a Microbeta Trilux (Wallac) for 1 min. […] Data analysis was performed using GraphPad Prism 4, employing competition binding with a single site model and a fixed Hill coefficient. The following equation was used: Y = Bottom + (Top-Bottom)/1/10^(X-logEC50), where X = log(concentration) and Y = binding to fit the data.

SMILES | IC50 [nM]
CC1=NN(c2ccc(C(=O)NC[C@@H]3CCN(CC(c4ccccc4)c4ccccc4)C(=O)[C@H](CCCN)N3)cc2)C(=O)C1 [Compound 259, N-(((3S,5S)-3-(3-aminopropyl)-1-(2,2-diphenylethyl)-2-oxo-1,4-diazepan-5-yl)methyl)-4-(3-methyl-5-oxo-4,5-dihydro-1H-pyrazol-1-yl)benzamide] | < 1000
N=C(N)NCCC[C@@H]1N[C@H](CNC(=O)c2ccc3ccccc3n2)CCN(CC(c2ccccc2)c2ccccc2)C1=O [Compound 116, N-(((3S,5S)-1-(2,2-diphenylethyl)-3-(3-guanidinopropyl)-2-oxo-1,4-diazepan-5-yl)methyl)quinoline-2-carboxamide] | < 1000
CCC(CC)CN1CC[C@@H](CNC(=O)c2ccc(F)c(Cl)c2)N[C@@H](CCN)C1=O [Compound 353, N-(((3S,5S)-3-(2-aminoethyl)-1-(2-ethylbutyl)-2-oxo-1,4-diazepan-5-yl)methyl)-3-chloro-4-fluorobenzamide] | < 10000
N=C(N)NCCC[C@@H]1N[C@H](CNC(=O)COc2ccccc2)CCN(CC(c2ccccc2)c2ccccc2)C1=O [Compound 162, N-(((3S,5S)-1-(2,2-diphenylethyl)-3-(3-guanidinopropyl)-2-oxo-1,4-diazepan-5-yl)methyl)-2-phenoxyacetamide] | < 10000
N=C(N)NCCC[C@@H]1N[C@H](CNC(=O)/C=C/c2ccccc2Cl)CCN(CC(c2ccccc2)c2ccccc2)C1=O [Compound 189, (E)-3-(2-chlorophenyl)-N-(((3S,5S)-1-(2,2-diphenylethyl)-3-(3-guanidinopropyl)-2-oxo-1,4-diazepan-5-yl)methyl)acrylamide] | < 1000
O=C(/C=C/c1ccc(Cl)cc1)NC[C@@H]1CCN(CC(c2ccccc2)c2ccccc2)C(=O)[C@H](CCc2ccccc2)N1 [Compound 320, (E)-3-(4-chlorophenyl)-N-(((3S,5S)-1-(2,2-diphenylethyl)-2-oxo-3-phenethyl-1,4-diazepan-5-yl)methyl)acrylamide] | < 1000
Cc1ccc(/C=C/C(=O)NC[C@@H]2CCN(CC(c3ccccc3)c3ccccc3)C(=O)[C@H](CCCN)N2)s1 [Compound 255, (E)-N-(((3S,5S)-3-(3-aminopropyl)-1-(2,2-diphenylethyl)-2-oxo-1,4-diazepan-5-yl)methyl)-3-(5-methylthiophen-2-yl)acrylamide] | < 1000

Second part, the molecule after the results:

IC50 [nM] | SMILES
< 100 | N=C(N)NCCC[C@@H]1N[C@H](CNC(=O)c2ccc3cc(F)ccc3c2)CCN(CC(c2ccccc2)c2ccccc2)C1=O [Compound 188, N-(((3S,5S)-1-(2,2-diphenylethyl)-3-(3-guanidinopropyl)-2-oxo-1,4-diazepan-5-yl)methyl)-6-fluoro-2-naphthamide]
< 100 | CN(C)C(=N)NCCC[C@@H]1N[C@H](CNC(=O)c2ccc3ccccc3c2)CCN(CC(c2ccccc2)c2ccccc2)C1=O [Compound 216, N-(((3S,5S)-3-(3-(3,3-dimethylguanidino)propyl)-1-(2,2-diphenylethyl)-2-oxo-1,4-diazepan-5-yl)methyl)-2-naphthamide]
< 100 | CCC(CN1CCC(CNC(=O)c2ccc3cc(Cl)ccc3c2)N[C@@H](C2CCNCC2)C1=O)c1ccccc1 (stereo partly drawn) [Compound 472, (S)-6-chloro-N-((2-oxo-1-(2-phenylbutyl)-3-(piperidin-4-yl)-1,4-diazepan-5-yl)methyl)-2-naphthamide]
< 100 | NCCC[C@@H]1N[C@H](CNC(=O)c2ccc(Cl)c(Cl)c2)CCN(CC(c2ccccc2)c2ccccc2)C1=O [Compound 224, N-(((3S,5S)-3-(3-aminopropyl)-1-(2,2-diphenylethyl)-2-oxo-1,4-diazepan-5-yl)methyl)-3,4-dichlorobenzamide]
< 100 | N=C(N)NCCC[C@@H]1N[C@H](CNC(=O)c2ccc(Cl)cc2Cl)CCN(CC(c2ccccc2)c2ccccc2)C1=O [Compound 136, 2,4-dichloro-N-(((3S,5S)-1-(2,2-diphenylethyl)-3-(3-guanidinopropyl)-2-oxo-1,4-diazepan-5-yl)methyl)benzamide]
